Measurements taken from US20090118288A1, “N-Benzyl-Morpholine Derivatives as Modulators of the Chemokine Receptor” (ASTRAZENECA AB, priority 2005, published 2009).

Target: T1, human recombinant CCR3 receptors (Homo sapiens, UniProt P51677)
T1 construct: expressed in transfected cells
T1 sequence (P51677 1-355): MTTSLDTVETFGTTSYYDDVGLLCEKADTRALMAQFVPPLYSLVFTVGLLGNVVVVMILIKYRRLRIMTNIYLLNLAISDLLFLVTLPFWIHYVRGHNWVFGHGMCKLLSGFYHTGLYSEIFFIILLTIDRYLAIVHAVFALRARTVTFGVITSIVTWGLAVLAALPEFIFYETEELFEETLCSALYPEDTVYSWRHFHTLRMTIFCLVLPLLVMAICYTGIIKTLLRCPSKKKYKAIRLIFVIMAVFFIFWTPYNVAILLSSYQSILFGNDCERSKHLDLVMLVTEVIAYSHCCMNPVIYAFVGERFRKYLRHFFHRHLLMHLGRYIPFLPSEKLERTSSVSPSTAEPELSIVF
Assay: Compound affinity at human recombinant CCR3 receptors by radioligand competition on CHO-K1 cell membranes
Format: binding
Details: competition of 2 nM [3H]-4-(2,4-dichloro-3-methylphenoxy)-1'-[4-(methylsulfonyl)benzoyl]-1,4'-bipiperidine, 2 h at 37° C., mean of minimum 2 experiments, Cheng-Prussof correction of pIC50
Method: Determination of Compound Affinity at Human Recombinant CCR3 Receptors Assessed by Competition of [^3H]-4-(2,4-dichloro-3-methylphenoxy)-1′-[4-(methylsulfonyl)benzoyl]-1,4′-bipiperidine for CHO-K1 Cell Membranes In Vitro
Membranes, prepared from CHO-K1 cells stably expressing recombinant human CCR3, suspended in assay buffer (50 mM Tris-Base, pH 7.4; containing sodium chloride (100 mM) and magnesium chloride (2 mM)) were incubated in the presence of 2 nM [^3H]-4-(2,4-dichloro-3-methylphenoxy)-1′-[4-(methylsulfonyl)benzoyl]-1,4′-bipiperidine, along with vehicle (1% (v/v) DMSO), 4-(4-chloro-3-methylphenoxy)-1′-[2-(methylsulfonyl)benzoyl]-1,4′-bipiperidine (to define non-specific binding) or test compound for 2 h at 37° C. in round bottomed 96-well plates. The plates were then filtered onto GF/B filter plates, pre-soaked for 1 hour in plate-coating solution (0.3% (w/v) polyethylenimine, 0.2% (w/v) BSA in de-ionised water), using a 96-well plate Tomtec cell harvester. Four washes (250 μL) with wash buffer (50 mM Tris-Base, pH 7.4 containing sodium chloride (500 mM) and magnesium chloride (2 mM)) were performed at 4° C. to remove unbound radioactivity. Plates were dried and MicroScint-O (50 μL) was added to each well. The plates were sealed (TopSeal A) and filter-bound radioactivity was measured with a scintillation counter (TopCount, Packard BioScience) using a 1 minute counting protocol.
Specific binding was determined from values of the control wells minus the values for the NSB wells for each assay plate. pIC50 values were calculated using a four parameter logistic fit (where pIC50 is defined as the negative logarithm of the concentration of compound required for 50% reduction in specific [^3H]-4-(2,4-dichloro-3-methylphenoxy)-1′-[4-(methylsulfonyl)benzoyl]-1,4′-bipiperidine binding). Data were presented as mean pKi values (calculated by applying a Cheng-Prussof correction to pIC50 values) from a minimum of 2 separate experiments.

Compound	CCR3 pKi
2-Amino-6-({[4-(3,4-dichloro-benzyl)-morpholin-2-ylmethyl]-carbamoyl}-methylsulfanyl)-5-fluoro-nicotinic acid [Example 29A]	9.4

Same assay, conditions: competition of 2 nM [3H]-4-(2,4-dichloro-3-methylphenoxy)-1'-[4-(methylsulfonyl)benzoyl]-1,4'-bipiperidine, 2 h at 37° C., mean of minimum 2 experiments, Cheng-Prussof correction of pIC50, read-out: CCR3 pKi (converted)

Compound	Ki [nM]
O=C(CSc1ccc(C(=O)O)cc1)NC[C@H]1CN(Cc2ccc(Cl)c(Cl)c2)CCO1 [Example 2, (S)-4-[[4-[(3,4-dichlorophenyl)methyl]morpholin-2-yl]methylcarbamoylmethylsulfanyl]-benzoic acid]	0.398
O=C(CSc1cccc(C(=O)O)c1)NC[C@H]1CN(Cc2ccc(Cl)c(Cl)c2)CCO1 [Example 6, (S)-3-[[4-[(3,4-dichlorophenyl)methyl]morpholin-2-yl]methylcarbamoylmethylsulfanyl]-benzoic acid]	0.501
O=C(CSc1ccc(C(=O)O)cc1C(F)(F)F)NC[C@H]1CN(Cc2ccc(Cl)c(Cl)c2)CCO1 [Example 8A, (S)-4-[[4-[(3,4-dichlorophenyl)methyl]morpholin-2-yl]methylcarbamoylmethylsulfanyl]-3-(trifluoromethyl)benzoic acid]	0.2
O=C(CSc1ncc(C(=O)O)cc1Cl)NC[C@H]1CN(Cc2ccc(Cl)c(Cl)c2)CCO1 [Example 9A, (S)-5-chloro-6-[[4-[(3,4-dichlorophenyl)methyl]morpholin-2-yl]methylcarbamoylmethylsulfanyl]-nicotinic acid]	0.251
Cc1c(CN2CCOC(CNC(=O)CSc3nc(N)c(C(=O)O)cc3F)C2)ccc(Cl)c1Cl (centres unmarked) [Example 10A, 2-Amino-6-({[4-(3,4-dichloro-2-methyl-benzyl)-morpholin-2-ylmethyl]-carbamoyl}-methylsulfanyl)-5-fluoro-nicotinic Acid]	0.2
Cc1cc(CN2CCO[C@@H](CNC(=O)CSc3ccc(C(=O)O)cc3F)C2)ccc1Cl [Example 16A, 4-[[(2S)-4-[(4-chloro-3-methyl-phenyl)methyl]morpholin-2-yl]methylcarbamoylmethylsulfanyl]-3-fluoro-benzoic acid]	0.251
Cc1cc(F)ccc1CN1CCO[C@@H](CNC(=O)CSc2ccc(C(=O)O)cc2F)C1 [Example 31A, 3-Fluoro-4-[[(2S)-4-[(4-fluoro-2-methyl-phenyl)methyl]morpholin-2-yl]methylcarbamoylmethylsulfanyl]benzoic Acid]	1
